Assay results: PMC9352624, “Going deeper into the toxicokinetics of synthetic cannabinoids: in vitro contribution of human carboxylesterases” (Archives of Toxicology, 2022)
“And” between values parts separate entries of the source, which are not always exact repeats. Equal entries are not always repeated.

Assays:
hCES2 = molecular target: T1, hCES2 (Homo sapiens, UniProt O00748); assay: Initial activity screening with recombinant hCES2; details: 100 µM substrate, 30 min, 37 °C, 0.2 µg/µL protein, LC–ITMS; for Relative amount of hydrolysis metabolite formed, hCES2: mean n = 2
T1 sequence (O00748 27-559): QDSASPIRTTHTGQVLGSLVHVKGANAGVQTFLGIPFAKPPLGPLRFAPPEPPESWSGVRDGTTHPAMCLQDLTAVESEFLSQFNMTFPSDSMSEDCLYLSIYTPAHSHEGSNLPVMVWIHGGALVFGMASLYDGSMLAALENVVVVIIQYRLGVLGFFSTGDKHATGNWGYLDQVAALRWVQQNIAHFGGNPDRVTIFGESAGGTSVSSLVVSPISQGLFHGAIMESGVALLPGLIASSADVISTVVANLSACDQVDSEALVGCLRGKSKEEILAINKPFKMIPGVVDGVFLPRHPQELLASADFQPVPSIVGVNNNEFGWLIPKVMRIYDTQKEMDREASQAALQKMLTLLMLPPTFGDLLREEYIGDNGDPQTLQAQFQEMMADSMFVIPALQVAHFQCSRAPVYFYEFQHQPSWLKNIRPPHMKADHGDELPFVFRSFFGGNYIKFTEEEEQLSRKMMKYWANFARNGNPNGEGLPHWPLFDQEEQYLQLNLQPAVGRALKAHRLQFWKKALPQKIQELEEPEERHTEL

hCES1c [1] = molecular target: T2, hCES1c (Homo sapiens, UniProt P23141); assay: Initial activity screening with recombinant hCES1c; details: 100 µM substrate, 30 min, 37 °C, 0.2 µg/µL protein, LC–ITMS; for Relative amount of hydrolysis metabolite formed, hCES1c: mean n = 2
T2 sequence (P23141 18-566 isoform P23141-3 limits assumed): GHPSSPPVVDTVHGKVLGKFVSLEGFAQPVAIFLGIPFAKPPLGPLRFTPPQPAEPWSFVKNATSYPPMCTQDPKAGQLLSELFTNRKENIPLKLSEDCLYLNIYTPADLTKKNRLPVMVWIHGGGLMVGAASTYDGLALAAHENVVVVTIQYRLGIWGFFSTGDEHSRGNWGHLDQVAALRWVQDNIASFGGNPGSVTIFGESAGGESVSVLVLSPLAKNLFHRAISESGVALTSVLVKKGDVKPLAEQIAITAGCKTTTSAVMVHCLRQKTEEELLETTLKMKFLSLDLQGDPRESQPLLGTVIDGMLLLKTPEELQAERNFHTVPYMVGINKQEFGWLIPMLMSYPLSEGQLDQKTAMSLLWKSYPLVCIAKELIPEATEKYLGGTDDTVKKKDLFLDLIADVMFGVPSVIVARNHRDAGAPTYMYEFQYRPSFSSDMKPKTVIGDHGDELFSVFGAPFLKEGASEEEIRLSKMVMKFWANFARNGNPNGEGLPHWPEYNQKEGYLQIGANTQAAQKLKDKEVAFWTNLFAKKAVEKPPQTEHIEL

hCES1b [2] = molecular target: T3, hCES1b (Homo sapiens, UniProt P23141); assay: Initial activity screening with recombinant hCES1b; details: 100 µM substrate, 30 min, 37 °C, 0.2 µg/µL protein, LC–ITMS; for Relative amount of hydrolysis metabolite formed, hCES1b: mean n = 2
T3 sequence (P23141 18-567): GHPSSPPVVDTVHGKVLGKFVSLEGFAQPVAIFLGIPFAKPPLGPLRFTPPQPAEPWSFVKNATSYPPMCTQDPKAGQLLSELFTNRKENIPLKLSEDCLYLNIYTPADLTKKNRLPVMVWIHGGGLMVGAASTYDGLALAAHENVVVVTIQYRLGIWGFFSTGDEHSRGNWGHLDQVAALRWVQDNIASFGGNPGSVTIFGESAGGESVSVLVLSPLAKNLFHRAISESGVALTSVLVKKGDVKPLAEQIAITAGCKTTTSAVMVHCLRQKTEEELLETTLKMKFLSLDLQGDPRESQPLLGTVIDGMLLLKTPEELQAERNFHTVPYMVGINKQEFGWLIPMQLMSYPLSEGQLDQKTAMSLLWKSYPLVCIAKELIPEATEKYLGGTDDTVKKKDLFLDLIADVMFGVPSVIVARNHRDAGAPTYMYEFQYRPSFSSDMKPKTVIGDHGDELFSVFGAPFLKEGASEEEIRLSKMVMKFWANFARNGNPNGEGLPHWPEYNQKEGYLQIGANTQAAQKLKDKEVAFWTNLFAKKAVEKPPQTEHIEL

[3] = Initial activity screening with pooled human liver S9 fraction; details: 100 µM substrate, 30 min, 37 °C, 2 µg/µL protein, LC–ITMS, mean n = 2
[4] = Initial activity screening with pooled human liver microsomes; details: 100 µM substrate, 30 min, 37 °C, 2 µg/µL protein, LC–ITMS, mean n = 2
hCES1c [5] = molecular target: T2, hCES1c; assay: Enzyme kinetic studies of ester hydrolysis with hCES1c; details: for Clint (relative in vitro intrinsic clearance), hCES1c: Clint = Vmax/Km; for Vmax (relative), ester hydrolysis by hCES1c: ± S.D., peak area ratio metabolite/internal standard
hCES1b [6] = molecular target: T3, hCES1b; assay: Enzyme kinetic studies of ester hydrolysis with hCES1b; details: for Clint (relative in vitro intrinsic clearance), hCES1b: Clint = Vmax/Km; for Vmax (relative), ester hydrolysis by hCES1b: peak area ratio metabolite/internal standard

Compound	Hydrolysis of carboxamide linker, hCES2 (hCES2)	Hydrolysis of carboxamide/ester in head group, hCES2 (hCES2)	Hydrolysis of carboxamide linker, hCES1c (hCES1c [1])	Hydrolysis of carboxamide/ester in head group, hCES1c (hCES1c [1])	Hydrolysis of carboxamide linker, hCES1b (hCES1b [2])	Hydrolysis of carboxamide/ester in head group, hCES1b (hCES1b [2])	Relative amount of hydrolysis metabolite formed, pHLS9 [3]	Relative amount of hydrolysis metabolite formed, hCES1c (hCES1c [1])	Relative amount of hydrolysis metabolite formed, pHLM [4]	Relative amount of hydrolysis metabolite formed, hCES1b (hCES1b [2])	Relative amount of hydrolysis metabolite formed, hCES2 (hCES2) [%]	Clint (relative in vitro intrinsic clearance), hCES1c (hCES1c [5]) [AU/min/mg/µM]	Vmax (relative), ester hydrolysis by hCES1c (hCES1c [5])	Clint (relative in vitro intrinsic clearance), hCES1b (hCES1b [6]) [AU/min/mg/µM]	Vmax (relative), ester hydrolysis by hCES1b (hCES1b [6]; ± S.D.)	Km (hCES1b [6]; read-out: Km, ester hydrolysis by hCES1b, ± S.D., Michaelis–Menten fit, conditions of Table 1) [µM]
CC(C)[C@H](NC(=O)c1cc(-c2ccc(F)cc2)nn1CCCCCF)C(N)=O [3,5-AB-5F-FUPPYCA, N-[(1S)-1-(aminocarbonyl)-2-methylpropyl]-1-(5-fluoropentyl)-3-(4-fluorophenyl)-1H-pyrazole-5-carboxamide]	−	−	−	−	−	−										
O=C(NC12CC3CC(CC(C3)C1)C2)c1nn(CC2CCCCC2)c2ccccc12 [A-CHMINACA, 1-cyclohexylmethyl-N-tricyclo[3.3.1.13,7]dec-1-yl-1H-indazole-3-carboxamide]	−		−		−											
CC(C)[C@H](NC(=O)c1cn(CCCCCF)c2ncccc12)C(N)=O [AB-5F-P7AICA, (S)-N-(1-amino-3-methyl-1-oxobutan-2-yl)-1-(5-fluoropentyl)-1H-pyrrolo[2,3-b]pyridine-3-carboxamide]	−	−	−	−	−	−										
CC(C)(C)C(NC(=O)c1nn(CC2CCCCC2)c2ccccc12)C(=O)O (stereo not shown) [DMBA-CHMINACA, 2-[1-(cyclohexylmethyl)-1H-indazole-3-carboxamido]-3,3-dimethylbutanoic acid]	−		−		−											
CC(C)C(NC(=O)c1nn(CC2CCCCC2)c2ccccc12)C(=O)O (stereo not shown) [MBA-CHMINACA, 2-[1-(cyclohexylmethyl)-1H-indazole-3-carboxamido]-3-methylbutanoic acid]	−		−		−											
COC(=O)[C@@H](NC(=O)c1nn(CCCCF)c2ccccc12)C(C)(C)C [MDMB-4F-BINACA, methyl (2S)-2-[1-(4-fluorobutyl)-1H-indazole-3-carbonyl]amino-3,3-dimethylbutanoate]	−		−	+	−	+	around 1%	below 1%	4.3%	below 1%						
C=CCCCn1nc(C(=O)N[C@H](C(=O)OC)C(C)(C)C)c2ccccc21 [MDMB-4en-PINACA, methyl (2S)-3,3-dimethyl-2-[(1-pent-4-enylindazole-3-carbonyl)amino]butanoate]	−		−	+	−	+	around 1%	below 1%	around 1%	below 1%						
COC(=O)[C@@H](NC(=O)c1cn(CCCCCF)c2ccccc12)C(C)(C)C [MDMB-5F-PICA, methyl (2S)-2-{[1-(5-fluoropentyl)-1H-indole-3-carbonyl]amino}-3,3-dimethylbutanoate]	−		−	−	−	−										
COC(=O)[C@@H](NC(=O)c1cn(Cc2ccc(F)cc2)c2ccccc12)C(C)(C)C [MDMB-FUBICA, methyl (2S)-2-({1-[(4-fluorophenyl)methyl]-1H-indole-3-carbonyl}amino)-3,3-dimethylbutanoate]	−		−	+	−	−	around 1%	below 1%	around 1%							
C=CCCCn1cc(C(=O)N[C@H](C(=O)OC)C(C)C)c2ccccc21 [MMB-4en-PICA, methyl (1-(pent-4-en-1-yl)-1H-indole-3-carbonyl)-L-valinate]	−	+	−	+	−	+	11%	5.7%		1.5%	0.2	0.04	7.57 AU/min/mg and 7.57 ± 0.42 AU/min/mg			
COC(=O)C(Cc1ccccc1)NC(=O)c1cn(CCCCCF)c2ccccc12 [MPhP-5F-PICA, methyl (1-(5-fluorpentyl)-1H-indole-3-carbonyl)-L-phenylalaninate]	−	+	−	+	−	+		20%		19%	2.1	3.2	73.6 AU/min/mg and 73.6 ± 3.8 AU/min/mg	2.0	182 AU/min/mg and 182 ± 13 AU/min/mg	
N-[(2S)-1-amino-3,3-dimethyl-1-oxobutan-2-yl]-1-(cyclohexylmethyl)-1H-indole-3-carboxamide [MMB-CHMICA]	−		−	+	−	+		2.3%	25%	14%				0.53	20.8 AU/min/mg and 20.8 ± 2.2 AU/min/mg	39.3 ± 12
